Data from patent US20050020534A1, “Method for treating diseases using HSP90-inhibiting agents in combination with antimetabolites” (Kosan Biosciences, Inc., priority 2003, published 2005).
Read-outs that look alike come from different tables or passages of the source.

Key:
[1] = tested on: DLD-1 cells (human colorectal cancer cells); experiment: MTS cell viability assay, drug combination effect analysis (combination index) in DLD-1 cells; format: cell-based; details: combination of antimetabolite with 17-AAG, CI<1 synergism, CI=1 additivity, CI>1 antagonism; for CI values, 17-AAG Pre-Administration: 17-AAG 24 hours before antimetabolite (48 hours); for CI values, 17-AAG Post-Administration: antimetabolite 24 hours, then 17-AAG for 48 hours
Protocol: Human colon adenocarcinoma cell line, DLD-1, and human breast adenocarcinoma cell line, SKBr-3, were obtained from American Type Culture Collection (manassas, Va.). […] Other cytotoxic agents were purchased commercially from suppliers such as Sigma Chemical Co. (St. Louis, Mo.) and Sequoia Research Products (Oxford, UK). Cells were seeded in duplicate in 96-well microtiter plates at a density of 5,000 cells per well and allowed to attach overnight. […] Cell viability was determined using the MTS assay (Promega). […] Based on the IC50 values of each individual drug, combined drug treatment was designed at constant ratios of two drugs, i.e., equivalent to the ratio of their IC50. Two treatment schedules were used: In one schedule, the cells were exposed to 24 hours of 17-AAG or 17-DMAG. The drug was then added to the cells and incubated for 48 hours. […] Cell viability was determined by the MTS assay. Synergism, additivity or antagonism was determined by median effect analysis using the combination index (CI) calculated using Calcusyn (Biosoft, Cambridge, UK). The combination index is defined as follows: […] The quantities [Dx]1 and [Dx]2 represent the concentrations of the first and second drug, respectively, that when used alone provide a response of x % in the assay. […] The “enhancing” effect of two drugs can also be determined.

[2] = tested on: SKBr cells (human breast cancer cells); experiment: MTS cell viability assay, drug combination effect analysis (combination index) in SKBr-3 cells; format: cell-based; details: combination of antimetabolite with 17-AAG, CI<1 synergism, CI=1 additivity, CI>1 antagonism; for CI values, 17-AAG Pre-Administration: 17-AAG 24 hours before antimetabolite (48 hours)
Protocol: Human colon adenocarcinoma cell line, DLD-1, and human breast adenocarcinoma cell line, SKBr-3, were obtained from American Type Culture Collection (manassas, Va.). […] Other cytotoxic agents were purchased commercially from suppliers such as Sigma Chemical Co. (St. Louis, Mo.) and Sequoia Research Products (Oxford, UK). Cells were seeded in duplicate in 96-well microtiter plates at a density of 5,000 cells per well and allowed to attach overnight. […] Cell viability was determined using the MTS assay (Promega). […] Based on the IC50 values of each individual drug, combined drug treatment was designed at constant ratios of two drugs, i.e., equivalent to the ratio of their IC50. Two treatment schedules were used: In one schedule, the cells were exposed to 24 hours of 17-AAG or 17-DMAG. The drug was then added to the cells and incubated for 48 hours. […] Cell viability was determined by the MTS assay. Synergism, additivity or antagonism was determined by median effect analysis using the combination index (CI) calculated using Calcusyn (Biosoft, Cambridge, UK). The combination index is defined as follows: […] The “enhancing” effect of two drugs can also be determined.

ErbB2 protein [3] = experiment: Expression of ErbB2 protein in SKBr3 cells; format: cell-based, human
ErbB2 protein [4] = experiment: Expression of ErbB2 protein in glioma cells; format: cell-based
[5] = clinical trials, sole therapeutic agent, cited from earlier work

| Compound | CI values, 17-AAG Pre-Administration [1] | CI values, 17-AAG Post-Administration [1] | CI values, 17-AAG Pre-Administration [2] | expression of ErbB2 protein (ErbB2 protein [3]) | expression of ErbB2 protein (ErbB2 protein [4]) | MTD ([5]; daily ×5 schedule) | MTD ([5]; once-weekly regimen) | MTD ([5]; twice-weekly regimen) | CI values, 17-AAG Post-Administration ([2]; antimetabolite 24 hours, then 17-AAG for 48 hours) |
| --- | --- | --- | --- | --- | --- | --- | --- | --- | --- |
| O=c1[nH]cc(F)c(=O)[nH]1 [5-Fluorouracil, 5-fluorouracil] | 0.96 ± 0.16 | 0.33 ± 0.08 | 0.65 ± 0.48 |  |  |  |  |  |  |
| C=CCNC1=C2C[C@@H](C)C[C@H](OC)[C@H](O)[C@@H](C)/C=C(\C)[C@H](OC(N)=O)[C@@H](OC)/C=C\C=C(/C)C(=O)NC(=CC1=O)C2=O [17-AAG, 17-(allylamino)-17-desmethoxygeldanamycin] |  |  |  | reduced the expression | reduced the expression | about 40 mg/m^2 | about 308 mg/m^2 | about 220 mg/m^2 |  |
| CO[C@H]1/C=C\C=C(/C)C(=O)NC2=CC(=O)C(NCCN(C)C)=C(C[C@@H](C)C[C@H](OC)[C@H](O)[C@@H](C)/C=C(\C)[C@@H]1OC(N)=O)C2=O [17-DMAG, 17-(2-dimethylaminoethyl)amino-17-desmethoxygeldanamycin] |  |  |  | reduced the expression | reduced the expression |  |  |  |  |
| Nc1ccn([C@@H]2O[C@H](CO)[C@@H](O)C2(F)F)c(=O)n1 [Gemcitabine, gemcitabine] | 0.45 ± 0.19 | 0.77 ± 0.23 | 1.79 ± 0.54 |  |  |  |  |  | 0.86 ± 0.19 |
| CN(Cc1cnc2nc(N)nc(N)c2n1)c1ccc(C(=O)N[C@@H](CCC(=O)O)C(=O)O)cc1 [Methotrexate, methotrexate] | 0.83 ± 0.14 | 0.71 ± 0.35 |  |  |  |  |  |  |  |
